Converted amounts (≈) assume the structure as drawn. Square brackets hold non-standard residues; d marks the D form. Peptide text beside a SMILES is read from it. Dab = NCC[C@H](N)C(=O)O; Dap = NC[C@H](N)C(=O)O
Tests used:
[1] = test system: Acinetobacter baumannii MB9949; conditions: Mueller-Hinton medium, 37°C, 24 h, inoculum 5 × 10^5 CFU/mL; MIC based on three sets of determinations
Method: (§1) The A. baumannii strains used in this study consisted of seven strains resistant to Polymyxin B and Colistin (antibiotics of last resort) obtained from MERCK (M89941, M89949, M89951, M89952, M89953, M89955 and M89963). The MICGM in this case is the geometric mean MIC from the seven Acinetobacter baumannii strains used in this study.
(§2) The minimal inhibitory concentration (MIC) is defined as the lowest peptide concentration that inhibited bacterial growth. MICs were measured by a standard microtiter dilution method in Mueller Hinton (MH) medium. Briefly, cells were grown overnight at 37°C in MH broth and were diluted in the same medium. […] The plates were incubated at 37°C for 24h, and the MICs were determined. The MICGM is the geometric mean of the number of MIC values.

[2] = test system: Acinetobacter baumannii MB9955; conditions: Mueller-Hinton medium, 37°C, 24 h, inoculum 5 × 10^5 CFU/mL; MIC based on three sets of determinations
Method: as §1, §2

[3] = test system: Acinetobacter baumannii MB9941; conditions: Mueller-Hinton medium, 37°C, 24 h, inoculum 5 × 10^5 CFU/mL; MIC based on three sets of determinations
Method: as §1, §2

[4] = test system: Acinetobacter baumannii MB9963; conditions: Mueller-Hinton medium, 37°C, 24 h, inoculum 5 × 10^5 CFU/mL; MIC based on three sets of determinations
Method: as §1, §2

[5] = test system: Acinetobacter baumannii MB9951; conditions: Mueller-Hinton medium, 37°C, 24 h, inoculum 5 × 10^5 CFU/mL; MIC based on three sets of determinations
Method: as §1, §2

[6] = test system: Acinetobacter baumannii MB9953; conditions: Mueller-Hinton medium, 37°C, 24 h, inoculum 5 × 10^5 CFU/mL; MIC based on three sets of determinations
Method: as §1, §2

[7] = test system: Acinetobacter baumannii MB9952; conditions: Mueller-Hinton medium, 37°C, 24 h, inoculum 5 × 10^5 CFU/mL; MIC based on three sets of determinations
Method: as §1, §2

[8] = test system: human red blood cells; assay: Hemolytic activity (HC50) determination; conditions: 1% human erythrocytes in PBS pH 7.4, 37°C, 18 h, 12 concentrations up to 1000 μg/mL, hemoglobin release at 570 nm, average of 3 replicates; estimated by extrapolation when 50% hemolysis not observed at 1000 μg/mL
Method: (§3) Peptide samples (concentrations determined by amino acid analysis) were added to 1% human erythrocytes in phosphate-buffered saline (100 mM NaCl, 80 mM Na2HPO4, 20 mM NaH2PO4, pH 7.4) and the reaction mixtures were incubated at 37°C for 18h in microtiter plates. Two-fold serial dilutions of the peptide samples were carried out. This determination was made by withdrawing aliquots from the hemolysis assays and removing unlysed erythrocytes by centrifugation (800 × g). Hemoglobin release was determined spectrophotometrically at 570 nm. The control for 100% hemolysis was a sample of erythrocytes treated with water. The control for no release of hemoglobin was a sample of 1% erythrocytes without any peptide added. […] The hemolytic activity HC50 is the peptide concentration that causes 50% hemolysis of erythrocytes after 18h. HC50 was determined from a plot of percent lysis versus peptide concentration (μM) using 12 different concentrations up to 1000 micrograms per ml for 18h at 37°C. The average of 3 replicates is used with an average variance of less than 4%. Fresh human blood was obtained from Vitalant, Denver, CO, USA.
(§4) In order to determine that we were able to eliminate hemolysis of human red blood cells, we used the most rigorous test of hemolytic activity (18h at 37°C and up to 1000 μg/mL or >350 μM of AMP). […] The HC50 value is estimated when 50% hemolysis is not observed at 1000 μg/mL by extrapolation of the plots observed in figure 3.

[9] = test system: human red blood cells
Method: as §3, §4

| Compound | MIC MB9949 [1] [µM] | MIC MB9955 [2] [µM] | MIC MB9941 [3] [µM] | MIC MB9963 [4] [µM] | MIC MB9951 [5] [µM] | MIC MB9953 [6] [µM] | MIC MB9952 [7] [µM] | HC50 (concentration of peptide that results in 50% hemolysis) [8] [µM] | lysis of human red blood cells at 1000 μg/mL [9] |
| --- | --- | --- | --- | --- | --- | --- | --- | --- | --- |
| CC(=O)N[C@H](CCCCN)C(=O)N[C@H](CC(C)C)C(=O)N[C@@H](CCN)C(=O)N[C@H](CO)C(=O)N[C@H](CC(C)C)C(=O)N[C@H](CC(C)C)C(=O)N[C@@H](CCN)C(=O)N[C@@H](C(=O)N[C@H](CC(C)C)C(=O)N[C@H](CO)C(=O)N[C@@H](CCN)C(=O)N[C@H](C)C(=O)N[C@H](CCCCN)C(=O)N[C@H](C)C(=O)N[C@H](C)C(=O)N[C@H](CCCCN)C(=O)N[C@H](CC(C)C)C(=O)N[C@@H](CCN)C(=O)N[C@@H](C(=O)N[C@H](CC(C)C)C(=O)N[C@H](CC(C)C)C(=O)N[C@@H](CCN)C(=O)N[C@H](C)C(=O)N[C@H](CC(C)C)C(=O)N[C@H](CO)C(=O)N[C@H](CO)C(N)=O)[C@H](C)O)[C@H](C)O [D102(Lys^1Ser^26-5 Dab-1)] (Ac-[dK][dL][Dab][dS][dL][dL][Dab][dT][dL][dS][Dab][dA][dK][dA][dA][dK][dL][Dab][dT][dL][dL][Dab][dA][dL][dS][dS]-NH2) | 0.7 (≈ 1.88 µg/mL) | 0.7 (≈ 1.88 µg/mL) | 0.4 (≈ 1.07 µg/mL) | 0.7 (≈ 1.88 µg/mL) | 0.7 (≈ 1.88 µg/mL) | 1.4 (≈ 3.76 µg/mL) | 0.7 (≈ 1.88 µg/mL) | >708 | – |
| CC(=O)N[C@H](CCCCN)C(=O)N[C@H](CC(C)C)C(=O)N[C@H](CCCCN)C(=O)N[C@H](CO)C(=O)N[C@H](CC(C)C)C(=O)N[C@H](CC(C)C)C(=O)N[C@H](CCCCN)C(=O)N[C@@H](C(=O)N[C@H](CC(C)C)C(=O)N[C@H](CO)C(=O)N[C@H](C)C(=O)N[C@H](C)C(=O)N[C@H](CCCCN)C(=O)N[C@H](CCCCN)C(=O)N[C@H](CCCCN)C(=O)N[C@H](CCCCN)C(=O)N[C@H](CC(C)C)C(=O)N[C@H](C)C(=O)N[C@@H](C(=O)N[C@H](CC(C)C)C(=O)N[C@H](CC(C)C)C(=O)N[C@H](CCCCN)C(=O)N[C@H](C)C(=O)N[C@H](CC(C)C)C(=O)N[C@H](CO)C(=O)N[C@H](CO)C(N)=O)[C@H](C)O)[C@H](C)O [D103(Lys^1Ser^26-5 Lys-2)] (Ac-[dK][dL][dK][dS][dL][dL][dK][dT][dL][dS][dA][dA][dK][dK][dK][dK][dL][dA][dT][dL][dL][dK][dA][dL][dS][dS]-NH2) | 0.7 (≈ 1.98 µg/mL) | 0.7 (≈ 1.98 µg/mL) | 0.7 (≈ 1.98 µg/mL) | 0.7 (≈ 1.98 µg/mL) | 0.7 (≈ 1.98 µg/mL) | 0.7 (≈ 1.98 µg/mL) | 0.7 (≈ 1.98 µg/mL) | 134.9 | – |
| CC(=O)N[C@H](CCCCN)C(=O)N[C@H](CC(C)C)C(=O)N[C@@H](CN)C(=O)N[C@H](CO)C(=O)N[C@H](CC(C)C)C(=O)N[C@H](CC(C)C)C(=O)N[C@@H](CN)C(=O)N[C@@H](C(=O)N[C@H](CC(C)C)C(=O)N[C@H](CO)C(=O)N[C@@H](CN)C(=O)N[C@H](C)C(=O)N[C@H](CCCCN)C(=O)N[C@H](C)C(=O)N[C@H](C)C(=O)N[C@H](CCCCN)C(=O)N[C@H](CC(C)C)C(=O)N[C@@H](CN)C(=O)N[C@@H](C(=O)N[C@H](CC(C)C)C(=O)N[C@H](CC(C)C)C(=O)N[C@@H](CN)C(=O)N[C@H](C)C(=O)N[C@H](CC(C)C)C(=O)N[C@H](CO)C(=O)N[C@@H](CN)C(N)=O)[C@H](C)O)[C@H](C)O [D105(Lys^1-6 Dap-1)] (Ac-[dK][dL][Dap][dS][dL][dL][Dap][dT][dL][dS][Dap][dA][dK][dA][dA][dK][dL][Dap][dT][dL][dL][Dap][dA][dL][dS][Dap]-NH2) | – | 0.5 (≈ 1.31 µg/mL) | – | – | – | – | – | – | essentially no lysis |

Source: article PMC8351594, “Design of Novel Amphipathic α-Helical Antimicrobial Peptides with No Toxicity as Therapeutics against the Antibiotic-Resistant Gram-Negative Bacterial Pathogen, Acinetobacter Baumannii” (Journal of medicinal chemistry and drug design, 2019)
